Laboratory results reported in paper PMC13193486, “Phycocyanobilin biosynthesis in Galdieria sulphuraria requires isomerization of phycoerythrobilin synthesized by bilin reductases” (The Febs Journal, 2026).

Target: T1, CmPCYA (Cyanidioschyzon merolae, UniProt M1V4R9)
T1 construct: gene CYME_CMG110C; N-terminal GST-tag, pGEX-6P-1, co-expressed with pGro7 chaperones in E. coli BL21(DE3)
T1 sequence (M1V4R9 1-325): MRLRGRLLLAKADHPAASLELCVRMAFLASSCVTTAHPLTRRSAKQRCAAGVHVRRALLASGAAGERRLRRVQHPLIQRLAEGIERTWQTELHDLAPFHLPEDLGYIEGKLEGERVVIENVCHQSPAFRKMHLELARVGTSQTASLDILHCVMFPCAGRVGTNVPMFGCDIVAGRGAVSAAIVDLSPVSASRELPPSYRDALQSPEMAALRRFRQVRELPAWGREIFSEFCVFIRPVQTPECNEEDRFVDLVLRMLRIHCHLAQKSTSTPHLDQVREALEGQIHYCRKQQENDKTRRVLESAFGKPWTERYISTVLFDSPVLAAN
Test: anaerobic bilin reductase assay, HPLC
Format: biochemical
Details: BV as substrate; PetF, FNR, NADPH-regenerating system; 20 °C

CC=C1C(=Cc2[nH]c(C=C3N=C(C=C4NC(=O)C(CC)=C4C)C(C)=C3CCC(=O)O)c(CCC(=O)O)c2C)NC(=O)C1C (stereo not shown) [PCB]
anaerobic bilin reductase assay, HPLC: catalyzing the reduction of BV to PCB (Fig. 7B: CmPCYA)
